In experiment [1] the target is T1, hMAO B-GFP fusion protein (medium form of dopamine probe) in PC12 cells (Homo sapiens, UniProt P27338).
T1 construct: expressed in transfected cells
Briefly: MAO substrates MPTP and L-DOPA added to cells expressing dopamine probe elicit GFP fluorescence. Format: cell-based. To be noted: for GFP fluorescence after drug treatment: PC12 cells expressing medium form of dopamine probe; for green fluorescence (release from shield effect) after treatment: preliminary experiment, excitation of 488 nm laser, a part of the cells. An excerpt: Additions of MAO Substrates 1-methyl-4-phenyl-1,2,3,6-tetrahydropyridine (MPTP) and L-DOPA in Cells Expressing Dopamine Probe Elicit GFP Fluorescence
MPTP is a widely used compound as an MAO substrate. It is also used for measuring the enzyme activity of the MAO protein. The L-DOPA is a stable dopamine precursor and has been extensively used for the treatment of Parkinson's disease. After entering the cell, it could be converted into dopamine by the dopa decarboxylase. Both of the drugs could bind to dopamine transporter and be transported into the PC12 cells.

Another experiment deals with E. coli strain BL21. Briefly: GFP fluorescent signal of dopamine probes and controls in living E. coli BL21, confocal microscopy. As to conditions: living E. coli BL21 after IPTG induction, excited by 488 nm laser, no substrate. Format: cell-based.
The next experiment relates to PC12 cell line. Briefly: GFP fluorescent signal of dopamine probes and controls in PC12 stable cell lines, confocal microscopy. Format: cell-based, rat. To be noted: excited by 488 nm laser, no substrate. An excerpt:
The rat pheochromocytoma cells (PC12 cell) were transfected with sequences of GFP, ΔhMAO B, and the probe protein through vector containing internal ribosome entry site (IRES). After antibiotic selection for more than a month, cell lines consistently expressing dopamine probe proteins were successfully established. The cell lines were detected by GFP antibody in Western blotting and observed by confocal microscopy.

The mark [2] stands for this setting: differentiated PC12 cell line (NGF).
Where [3] appears, read: undifferentiated PC12 cell line.

For the molecule `CN1CC=C(c2ccccc2)CC1` [MPTP, 1-methyl-4-phenyl-1,2,3,6-tetrahydropyridine], the “GFP fluorescence after drug treatment” value in experiment [1] (1 mM MPTP) is on record as “strong GFP fluorescence”. The “green fluorescence (release from shield effect) after treatment” value in experiment [1] is recorded as “green fluorescence in those cells was successfully emitted”.

Turning to “GFP: full-length green fluorescent protein, SEQ ID NO: 2, control [reference compound]”, the GFP fluorescent signal result is on record as “Evident expression of green fluorescent signal” in the experiment with E. coli strain BL21, “clear fluorescent signals” in the experiment with E. coli strain BL21 (listed as full length GFP), “clear fluorescent signals” in the experiment on PC12 cell line (setting [2]) and “clear fluorescent signals” in the experiment on PC12 cell line (setting [3]).

In the case of `N[C@@H](Cc1ccc(O)c(O)c1)C(=O)O` [L-DOPA], the “GFP fluorescence after drug treatment” value in experiment [1] (100 μM L-dopa) was “strong GFP fluorescence”. Moreover, the “green fluorescence (release from shield effect) after treatment” value in experiment [1] was “green fluorescence in those cells was successfully emitted”.

B1: ΔhMAO B (protein)
chain: MSNKCDVVVVGGGISGMAAAKLLHDSGLNVVVLEARDRVGGRTYTLRNQKVKYVDLGGSYVGPTQNRILRLAKELGLETYKVNEVERLIHHVKGKSYPFRGPFPPVWNPITYLDHNNFWRTMDDMGREIPSDAPWKAPLAEEWDNMTMKELLDKLCWTESAKQLATLFVNLCVTAETHEVSALWFLWYVKQCGGTTRIISTTNGGQERKFVGGSGQVSERIMDLLGDRVKLERPVIYIDQTRENVLVETLNHEMYEAKYVISAIPPTLGMKIHFNPPLPMMRNQMITRVPLGSVIKCIVYYKEPFWRKKDYCGTMIIDGEEAPVAYTLDDTKPEGNYAAIMGFILAHKARKLARLTKEERLKKLCELYAKVLGSLEALEPVHYEEKNWCEEQYSGGCYTTYFPPGILTQYGRVLRQPVDRIYFAGTETATHWSGYMEGAVEAGERAAREILHAMGKIPEDEI
For B1, the GFP fluorescent signal result in the experiment with E. coli strain BL21 is “no fluorescent signal”; with PC12 cell line (setting [2]), “no signal”; in the experiment on PC12 cell line (setting [3]) it was “no signal”.

B2: hMAO B: the complete human monoamine oxidase B, SEQ ID NO: 1, control (protein, listed as Homo sapiens)
chain: MSNKCDVVVVGGGISGMAAAKLLHDSGLNVVVLEARDRVGGRTYTLRNQKVKYVDLGGSYVGPTQNRILRLAKELGLETYKVNEVERLIHHVKGKSYPFRGPFPPVWNPITYLDHNNFWRTMDDMGREIPSDAPWKAPLAEEWDNMTMKELLDKLCWTESAKQLATLFVNLCVTAETHEVSALWFLWYVKQCGGTTRIISTTNGGQERKFVGGSGQVSERIMDLLGDRVKLERPVIYIDQTRENVLVETLNHEMYEAKYVISAIPPTLGMKIHFNPPLPMMRNQMITRVPLGSVIKCIVYYKEPFWRKKDYCGTMIIDGEEAPVAYTLDDTKPEGNYAAIMGFILAHKARKLARLTKEERLKKLCELYAKVLGSLEALEPVHYEEKNWCEEQYSGGCYTTYFPPGILTQYGRVLRQPVDRIYFAGTETATHWSGYMEGAVEAGERAAREILHAMGKIPEDEIWQSEPESVDVPAQPITTTFLERHLPSVPGLLRLIGLTTIFSATALGFLAHKRGLLVRV
modifications: mat_peptide (1)..(520)
As for B2, the GFP fluorescent signal entry in the experiment with E. coli strain BL21 is listed as “no fluorescent signal”.

These data come from patent US8426220B2, “Utilization of shield effect for dopamine detection and reagent development” (National Tsing Hua University, priority 2009, dated 2013).
